Assay results taken from US20250057813A1, “APOPTOSIS RELATED PROTEIN IN THE TGF-BETA SIGNALING PATHWAY (ARTS) MIMETIC COMPOUNDS, COMPOSITIONS, METHODS AND USES THEREOF IN INDUCTION OF APOPTOSIS” (Carmel-Haifa University Economic Corporation Ltd., priority 2022, published 2025).
“Also recorded” adds a separate entry of the source.

How the values were obtained:
[1] = tested on: MCF10AT1K (M2) cells; assay: TUNEL assay in M2 cells in 3D BME system; format: cell-based, Human; settings: 40 μM, 24 h
Method: Cells were harvested from their growth plates using 0.25% trypsin EDTA. Collected cells were cultured in Cultrex® growth factor reduced Basement Membrane Extract (BME: Trevigen, Inc) as follows: An 8 chamber glass slide system (Lab-TEK® II, Naperville, IL) was coated with 60 μl BME [Barkan D. et al., Cancer Research (2008)](protein concentration between […]; thickness-1-2 mm). 5×10^3 cells per well were re-suspended in DMEM/F12 supplemented with 2.5% DHS and 2% BME and cultured on the coated slides. Slides were incubated at 37° C., 5% CO2 incubator. Cells were re-fed every 4 days. Cell morphology was monitored by light microscopy. Immunofluorescence images were captured by Nikon Al—R confocal laser scanning microscope (Haifa University, Haifa, Israel).
The cells were cultured as described above in 8 well chamber glass slides, fixed according to Barkan's immunofluorescence staining protocol and incubated for 1 hour with a mixture of TUNEL reaction mix according to the manufacturer's protocol (In Situ Cell death Detection Kit, TMR Red; Roche, Cat #12-156-792-910) covered with aluminum foil and placed in the 37° C., 5% CO2 incubator. Following incubation, slides were washed three times with PBS for 5 minutes each, and mounted with […] mounting medium with DAPI. DAPI stain was used to assess total cell number. […]

[2] = target: BCL-2 (Homo sapiens, UniProt P10415); assay: MST binding assay; settings: binding curve, dose response
Method: Microscale thermophoresis (MST) binding assays were performed by CreLux, a WuXi AppTech company in Germany, using recombinant ARTS, XIAP, Bcl-2 and cIAP1 proteins. Specifically, for performing experiments with untagged XIAP, a fluorescent label (NT650) was covalently attached to the protein (Maleimide coupling). The labelling was performed in a buffer containing 50 mM HEPES pH 7.0, 150 mM NaCl and 0.005% Tween-20.

[3] = target: T1, binding of XIAP to Bcl-2 (Homo sapiens, UniProt P10415+P98170); assay: BiFC assay in A375 melanoma cells (Bcl-2-VC and XIAP-VN); format: cell-based; settings: 20 μM B3, 24 h
T1 construct: expressed in transfected cells; host or cells: A375 melanoma cells
Source text: The split-Venus BiFC system was used to evaluate close proximity indicating possible direct binding between pairs of proteins. The proteins were fused either to the N-terminal part of the Venus-YFP (yellow fluorescence protein) (VN) or the C-terminal part (VC). All Venus fragments were fused to the C-terminal sequences of these proteins. The Jun and Fos pair was used as a positive control (P.C.), and the Jun and FosdeltaZIP pair was used as a negative control (N.C.). A vector encoding dsRed was used as a transfection efficiency marker. Cells were seeded in 12 well plates overnight. Cells were then transfected with (Bcl-2-VC, ARTS-VN, XIAP-VN and XIAP-VC) for 24-36 hours. Cells were then treated with apoptotic inducing reagents for 24 hrs.

[4] = tested on: WT MEFs and Sept4/ARTS KO MEFs cells; assay: Western blot of WT MEFs and Sept4/ARTS KO MEFs; format: cell-based, mouse; settings: 20 or 40 μM, 24 hours
Method: (§1) Cells were lysed in whole-cell extract buffer [25 mM HEPES, pH 7.7, […], 1.5 mM MgCl2, 0.2 mM EDTA, 0.1% Triton X-100, 100 μg/ml phenylmethylsulfonyl fluoride (PMSF) and protease inhibitor cocktail (Roche, 1:100 dilution)] and placed on ice for 30 min (vortexing once after 15 min). After 30 minutes, the samples were centrifuged at 13,000×g for 10 minutes at 4° C. The supernatants containing total protein were measured for protein concentration using Bio-Rad Protein Assay Dye Reagent Concentrate Kit. 40 to […] was separated by sodium dodecyl sulfate-polyacrylamide gel electrophoresis (SDS-PAGE) (12% or 7.5%), followed by transfer to a nitrocellulose membrane. The membranes were blocked with 5% (w/v) non-fat dried skimmed milk powder in PBS supplemented with 0.05% Tween-20 (PBS-T) for 1 h at RT. Next, primary antibodies were added at 4° C. overnight or for 2 h at room temperature. Membranes were then incubated with secondary antibody for 1 h at RT and washed three times for 15 min each with PBS-T. Western Bright ECL (Advansta) was added to the membrane for 30-60 s and analyzed using Image Quant LAS-4000 (GE Healthcare Life Sciences) and Image Quant LAS-4000 software (GE Healthcare Life Sciences).

[5] = tested on: MEF cells; assay: Western blot analysis of MEF cells (WT and XIAP KO); format: cell-based, mouse; settings: 20 μM B3 for 2, 4, 6, 16 hours
Method: as §1

[6] = target: T2, p53 ubiquitylation by XIAP (Homo sapiens, UniProt P98170); assay: In vitro ubiquitylation assay, recombinant GST-XIAP and p53; format: biochemical; settings: 20 and 40 μM B3, 1 hour at 37C
T2 construct: host or cells: bacteria (GST-XIAP)
Method: Bacterially expressed His-ARTS was purified using fast protein liquid chromatography (FPLC), and bacterially expressed GST-XIAP was purified using glutathione beads. P53 recombinant protein was purchased from R&D (cat #SP-450). Recombinant p53 and GST-XIAP were incubated. E1, UbcH5b, ubiquitin (Ub), and the appropriate E3 in conjugation buffer (20 mM Tris-Cl [pH 7.6], 100 mM KCl, 5 mM MgCl2, and 1 mM DTT) containing 2 mM ATP at 37C for 1 hour.

[7] = tested on: SKMEL-5, A-375, UACC257, Hela wt, Mefs; assay: Western blot, B3 apoptotic effect on different cell lines; format: cell-based; settings: 20 μM, 24 h
Method: The cells were lysed in WCE (whole-cell extract) buffer [25 mM Hepes, pH 7.7, 0.3M NaCl, 1.5 mM MgCl2, 0.2 mM EDTA, 0.1% Triton X-100, 100[μg/ml PMSF and protease inhibitor cocktail (Roche, 1:100 dilution)]. 100 μg of total cell protein, measured with the Bio-Rad Protein Assay kit, were separated by SDS-PAGE (12%) followed by transfer for 2 h on to a nitrocellulose membrane. The membrane was blocked with 5% (w/v) non-fat dried skimmed milk powder in PBS supplemented with 0.05% Tween20 (PBS-T) for 1 hour at room temperature (R.T). Membrane was then probed with primary antibody at 4° C. overnight. Next, the membrane was incubated with the appropriate HRP-conjugated secondary antibody, for 1 hour at R.T. and washed 15 min ×3 with PBS-T. WesternBright ECL (Advansta) was added to the membrane for 2 min and analyzed using ImageQuant LAS-4000 analyzer (GE Healthcare Life Sciences) & “ImageQuant LAS-4000” software (GE Healthcare Life Sciences). Densitometry analysis was performed using ImageQuant total lab 7 (GE Healthcare Life Sciences), image analysis software.

T1 sequence (P98170 whole entry): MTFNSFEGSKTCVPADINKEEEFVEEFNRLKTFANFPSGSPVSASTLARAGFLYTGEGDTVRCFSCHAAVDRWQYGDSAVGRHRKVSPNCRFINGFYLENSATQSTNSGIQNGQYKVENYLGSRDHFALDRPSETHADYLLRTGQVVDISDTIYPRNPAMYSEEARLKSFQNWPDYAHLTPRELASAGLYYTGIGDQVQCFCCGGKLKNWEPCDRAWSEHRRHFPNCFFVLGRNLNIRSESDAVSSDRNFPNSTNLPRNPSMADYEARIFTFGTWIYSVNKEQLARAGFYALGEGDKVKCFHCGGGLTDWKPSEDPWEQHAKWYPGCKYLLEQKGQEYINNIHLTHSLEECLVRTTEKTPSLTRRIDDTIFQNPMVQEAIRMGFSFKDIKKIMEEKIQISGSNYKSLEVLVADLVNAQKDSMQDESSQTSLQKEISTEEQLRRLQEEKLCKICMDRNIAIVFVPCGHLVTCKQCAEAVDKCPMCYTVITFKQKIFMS
T1 sequence (P10415 whole entry): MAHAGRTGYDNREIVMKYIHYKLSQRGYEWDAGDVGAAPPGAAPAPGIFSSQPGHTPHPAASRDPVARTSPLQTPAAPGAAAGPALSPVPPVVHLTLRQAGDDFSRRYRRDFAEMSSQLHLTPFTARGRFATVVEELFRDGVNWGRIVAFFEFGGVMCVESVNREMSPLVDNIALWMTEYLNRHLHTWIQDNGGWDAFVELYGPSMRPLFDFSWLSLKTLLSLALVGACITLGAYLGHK
T2 sequence (P98170 whole entry): as the sequence (P98170 whole entry) above
Chain of BCL-2 (P10415 whole entry): as the sequence (P10415 whole entry) above

- direct binding to Bcl-2 [2]: binds with high affinity
- p53 Ubiquitylation by XIAP [6]: dose-dependent inhibition
SMILES: Cn1ccnc1C(=O)c1ccc(NC(=O)C(=O)N[C@H](CO)Cc2ccccc2)cc1 [B3, (S)-N1-(1-hydroxy-3-phenylpropan-2-yl)-N2-(4-(1-methyl-1H-imidazole-2-carbonyl)phenyl)oxalamide]
- number of cells positive for TUNEL staining [1]: significant increase
- binding of XIAP to Bcl-2 [3]: slightly increased; also recorded: increased
- XIAP levels [4]: downregulates
- p53 levels [4]: upregulate
- MDM2 levels [5]: reduction
- XIAP levels [5]: reduction
- cPARP or caspase3 [5]: elevation
- p53 levels [5]: elevation
- cleavage of apoptotic markers Caspase3 and PARP [7]: induced cleavage
